Measurements from the NIST ThermoML archive (doi:10.1021/je700671t).

Key:
[1] = 101 kPa, Liquid; for viscosity: Capillary tube (Ostwald / Ubbelohde) method
[2] = xn = mol fraction of the nth substance listed; conditions: 101 kPa, Liquid, x2 = 0; for viscosity: Capillary tube (Ostwald / Ubbelohde) method

CN(C)C=O [dimethylformamide]
[1]
Conditions	mass density [kg/m3]	viscosity [mPa·s]
283.15 K	958.96	–
288.15 K	954.17	–
293.15 K	949.39	0.864
298.15 K	944.6	–
303.15 K	939.83	0.766
308.15 K	935.05	–
313.15 K	930.27	0.684
318.15 K	925.49	–
323.15 K	920.71	0.617
328.15 K	915.92	–
333.15 K	911.13	0.559
338.15 K	906.32	–
343.15 K	901.51	0.51
348.15 K	896.69	–
353.15 K	891.86	0.47

O [water] + CN(C)C=O
[2]
Conditions	mass density [kg/m3]	viscosity [mPa·s]
283.15 K	999.7	–
293.15 K	–	1.026
303.15 K	–	0.817
313.15 K	–	0.67
323.15 K	988.03	0.561
328.15 K	985.69	–
333.15 K	983.19	0.48
338.15 K	980.55	–
343.15 K	977.76	0.419
348.15 K	974.84	–
353.15 K	971.79	0.371
